The text below walks through data of US20040063649A1, “Azithromycin combination for emesis control in mammals” (Pfizer Inc, priority 1999, published 2004).

Assay [1] deals with azithromycin-induced emesis in azithromycin-sensitive English pointers. Description: Control of azithromycin-induced emesis in an azithromycin-sensitive dog population. In kind it is in vivo. As to the method: (§1) The ability of various compounds to control azithromycin-induced emesis in dogs was measured in 13 studies using two groups of dogs. The majority of the studies were conducted using a family (dam and offspring) of 12 azithromycin-sensitive English pointers, bred and maintained by Young Veterinary Research Services of Turlock, Calif. The remaining studies were conducted using random source dogs maintained at the Pfizer Animal Health Research facility in Terre Haute, Ind. In all studies, azithromycin was administered in immediate release formulations at a dose of 10 mg/kg.
Initially, four commercialized antiemetic products and CP122,721 were screened individually in the azithromycin-sensitive population with a minimum 7 day washout period between antiemetic tests. Antiemetics were administered orally about 15 to 30 minutes prior to oral treatment with 10 mg/kg azithromycin in an immediate release tablet. […] Other antiemetics reduced the incidence of emesis by only about 10 to 42%.
(§2) Four studies were conducted to titrate the dose of CP122,721 for maximum antiemetic activity with and without a delay between oral antiemetic and oral azithromycin dosing. […] While these studies were in progress, random source dogs (8 per-treatment) were administered 0, 1.5 or 3 mg/kg CP122,721 simultaneously with 10 mg/kg azithromycin. […] In the fourth study, the sensitive pointers received either 3 or 4 mg/kg CP122,721 simultaneously with azithromycin. The incidence of emesis was equivalent with one dog in each treatment group vomiting.

In assay [2] the test system is azithromycin-induced emesis in random source dogs. Description: Control of azithromycin-induced emesis in random source dogs. The following applies: for Emetic Dogs/Total Dogs: Random source dogs, 0 minutes before (simultaneously with) azithromycin 10 mg/kg. In kind it is in vivo, dog. As to the method: as §1, §2
The test system of another assay is emesis in ferrets. Particulars: vomiting caused by intragastric copper sulfate and ipecac syrup, subcutaneous loperamide, intraperitoneal cisplatin; cited from earlier work.
[3] abbreviates: antiemetic 1 mg/kg oral, 30 minutes before azithromycin 10 mg/kg oral immediate release tablet.

Turning to `CCN(CC)CCNC(=O)c1cc(Cl)c(N)cc1OC` [Metoclopramide, reference compound], the “Emetic Dogs/Total Dogs” value in assay [1] (antiemetic 0.5 mg/kg oral, 15 minutes before azithromycin 10 mg/kg oral immediate release tablet) is on record as 11/12.
For the compound `CN(C)CCOC(c1ccccc1)c1ccccc1.Cn1c(=O)c2[nH]c(Cl)nc2n(C)c1=O` [Dimenhydrinate, reference compound], in assay [1] (antiemetic 8 mg/kg oral, 30 minutes before azithromycin 10 mg/kg oral immediate release tablet), the “Emetic Dogs/Total Dogs” value was 10/12.
With `CN1CCN(CCCN2c3ccccc3Sc3ccc(Cl)cc32)CC1` [Prochlorperazine, reference compound], in assay [1] (setting [3]), the “Emetic Dogs/Total Dogs” value was 7/12.
For `COc1ccc(OC(F)(F)F)cc1CN[C@H]1CCCN[C@H]1c1ccccc1` [CP122,721, (2S,3S)-3-(2-methoxy-5-trifluoromethoxybenzyl)amino-2-phenylpiperidine], the “Emetic Dogs/Total Dogs” value in assay [2] (CP122,721 1.5 mg/kg) was 4/8; in assay [2] (CP122,721 3 mg/kg), 0/8; in assay [1] (Sensitive dogs, 30 minutes before azithromycin 10 mg/kg), 0/4; in assay [1] (Sensitive dogs, CP122,721 1 mg/kg oral, 30 minutes before azithromycin 10 mg/kg) it was 4/4; in assay [1] (Sensitive dogs, CP122,721 2.5 mg/kg oral, 0 minutes before (simultaneously with) azithromycin 10 mg/kg) it was 6/6; in assay [1] (Sensitive dogs, CP122,721 2.5 mg/kg oral, 30 minutes before azithromycin 10 mg/kg), 0/6. Further, the “Emetic Dogs/Total Dogs” value in assay [1] (Sensitive dogs, CP122,721 3 mg/kg, 0 minutes before (simultaneously with) azithromycin 10 mg/kg) is reported as 1/6; in assay [1] (Sensitive dogs, CP122,721 4 mg/kg, 0 minutes before (simultaneously with) azithromycin 10 mg/kg), 1/6; in assay [1] (Sensitive dogs, CP122,721 dose cell blank (third line of first titration), 30 minutes before azithromycin 10 mg/kg), 0/4; in assay [1] (antiemetic 5 mg/kg oral, 30 minutes before azithromycin 10 mg/kg oral immediate release tablet), 0/12. In addition, the “incidence of emesis (in words)” value in assay [2] (random source dogs, 8 per treatment, 1.5 mg/kg simultaneously with 10 mg/kg azithromycin) is recorded as “not reduced”. Besides, in assay [2] (random source dogs, 8 per treatment, 3 mg/kg simultaneously with 10 mg/kg azithromycin), the “prevention of azithromycin emesis (in words)” value is on record as “completely effective”. Besides, in the assay with emesis in ferrets, the “effect on vomiting in ferrets (in words)” value is “reduces vomiting”. Besides, the “effective in preventing emesis” value in assay [1] (5 mg/kg oral, about 15 to 30 minutes prior to oral azithromycin 10 mg/kg) is 100%. For the same compound, in assay [1] (sensitive pointers, 2.5 mg/kg simultaneously with azithromycin), the “emesis (in words)” value is given as “all pointers were emetic”. For the same compound, in assay [1] (sensitive pointers, 2.5 mg/kg, 30 minutes prior to azithromycin), the “prevention of emesis (in words)” value is “effective in preventing emesis”. Further, the “dogs vomiting in treatment group” value was “one” in assay [1] (sensitive pointers, 3 mg/kg simultaneously with azithromycin) and “one” in assay [1] (sensitive pointers, 4 mg/kg simultaneously with azithromycin).
On to `Cc1nccn1CC1CCc2c(c3ccccc3n2C)C1=O` (centres unmarked) [Ondansetron, reference compound], for which the “Emetic Dogs/Total Dogs” value in assay [1] (setting [3]) is 5/12. Moreover, the “reduction of the incidence of emesis” value in assay [1] (antiemetic oral about 15 to 30 minutes prior to oral azithromycin 10 mg/kg, doses as in Table 1) amounted to 58%.
